Common to all, as to assay type: in vivo
In test [1] the test system is Erysiphe graminis f. sp. tritici. Kind of test: Test A: preventive spray on wheat seedlings, wheat powdery mildew, disease rating. Particulars: wheat seedlings sprayed to run-off, inoculated the following day with Erysiphe graminis f. sp. tritici, rated after 7 days at 20° C.; test concentration not given. From the text: General protocol for preparing test suspensions: Test compounds were first dissolved in acetone in an amount equal to 3% of the final volume and then suspended at the desired concentration (in ppm) in acetone and purified water (50/50 mix) containing 250 ppm of the surfactant Trem® 014 (polyhydric alcohol esters). The resulting test suspensions were then used in the following tests. Spraying a 200 ppm test suspension to the point of run-off on the test plants was the equivalent of a rate of 500 g/ha. The test suspension was sprayed to the point of run-off on wheat seedlings. The following day the seedlings were inoculated with a spore dust of Erysiphe graminis f. sp. tritici, (the causal agent of wheat powdery mildew) and incubated in a growth chamber at 20° C. for 7 days, after which disease ratings were made. Results for Tests A-C are given in Table A. In the table, a rating of 100 indicates 100% disease control and a rating of 0 indicates no disease control (relative to the controls). A dash (-) indicates no test results.

Another test deals with Puccinia recondita. Kind of test: Test B: preventive spray on wheat seedlings, wheat leaf rust, disease rating. To be noted: wheat seedlings sprayed to run-off, inoculated the following day with Puccinia recondita, 24 h saturated atmosphere then 6 days at 20° C.; test concentration not given. An excerpt: (§1) General protocol for preparing test suspensions: Test compounds were first dissolved in acetone in an amount equal to 3% of the final volume and then suspended at the desired concentration (in ppm) in acetone and purified water (50/50 mix) containing 250 ppm of the surfactant Trem® 014 (polyhydric alcohol esters). The resulting test suspensions were then used in the following tests. Spraying a 200 ppm test suspension to the point of run-off on the test plants was the equivalent of a rate of 500 g/ha. The test suspension was sprayed to the point of run-off on wheat seedlings. The following day the seedlings were inoculated with a spore suspension of Puccinia recondita (the causal agent of wheat leaf rust) and incubated in a saturated atmosphere at 20° C. for 24 h, and then moved to a growth chamber at 20° C. for 6 days, after which disease ratings were made. Results for Tests A-C are given in Table A. In the table, a rating of 100 indicates 100% disease control and a rating of 0 indicates no disease control (relative to the controls). A dash (-) indicates no test results.

For another test, the system named is Septoria nodorum. Kind of test: Test C: preventive spray on wheat seedlings, Septoria glume blotch, disease rating. To be noted: wheat seedlings sprayed to run-off, inoculated the following day with Septoria nodorum, 48 h saturated atmosphere then 9 days at 20° C.; test concentration not given.
Source text: as §1, with “Septoria nodorum” for “Puccinia recondita”, “Septoria glume blotch)” for “wheat leaf rust)”, “48” for “24”, “9” for “6”

Consider `CCCCC(CCC)Sc1cc(C)c(N=CN(C)C)cc1C` (stereo not drawn) [compound 141], for which the “Test A disease control rating (100 = 100% disease control, 0 = no disease control relative to the controls)” value in test [1] is recorded as 0%. Further, the “Test B disease control rating (100 = 100% disease control, 0 = no disease control relative to the controls)” value with Puccinia recondita worked out at 99%. Also, the “Test C disease control rating (100 = 100% disease control, 0 = no disease control relative to the controls)” value in the test on Septoria nodorum was 100%.
Regarding `CCN(C)C(=S)Nc1cc(Cl)c(OCCCC(C)(C)C)cc1C` [compound 178], the “Test A disease control rating (100 = 100% disease control, 0 = no disease control relative to the controls)” value in test [1] was found to be 100%. The “Test B disease control rating (100 = 100% disease control, 0 = no disease control relative to the controls)” value with Puccinia recondita is recorded as 100%. In addition, the “Test C disease control rating (100 = 100% disease control, 0 = no disease control relative to the controls)” value with Septoria nodorum turned out to be 100%.
Consider `CCN(CC)C(=S)Nc1cc(Cl)c(OCCC[Si](C)(C)C)cc1C` [compound 170], for which, in test [1], the “Test A disease control rating (100 = 100% disease control, 0 = no disease control relative to the controls)” value is reported as 99%. In addition, the “Test B disease control rating (100 = 100% disease control, 0 = no disease control relative to the controls)” value in the test on Puccinia recondita is 100%. For the same molecule, in the test with Septoria nodorum, the “Test C disease control rating (100 = 100% disease control, 0 = no disease control relative to the controls)” value came to 99%.
For `CCCCCC(CCCCC)Oc1cc(C)c(N=C(C)N(C)C)cc1C` [compound 99], the “Test A disease control rating (100 = 100% disease control, 0 = no disease control relative to the controls)” value in test [1] is given as 0%. Besides, the “Test B disease control rating (100 = 100% disease control, 0 = no disease control relative to the controls)” value with Puccinia recondita is 9%. In addition, the “Test C disease control rating (100 = 100% disease control, 0 = no disease control relative to the controls)” value in the test with Septoria nodorum stood at 0%.
For the molecule `Cc1c(NC(=S)N(C)C)cc(Cl)c(OCCC[Si](C)(C)C)c1Cl` [compound 180], the “Test A disease control rating (100 = 100% disease control, 0 = no disease control relative to the controls)” value in test [1] is reported as 75%. Moreover, the “Test B disease control rating (100 = 100% disease control, 0 = no disease control relative to the controls)” value with Puccinia recondita is given as 58%. Further, the “Test C disease control rating (100 = 100% disease control, 0 = no disease control relative to the controls)” value in the test on Septoria nodorum came to 0%.
Regarding `Cc1cc(OCCC(C)CCCC(C)C)c(C)cc1N=CN(C)C` (stereo not drawn) [Compound 10], in test [1], the “Test A disease control rating (100 = 100% disease control, 0 = no disease control relative to the controls)” value is on record as 97%. In the test on Puccinia recondita, the “Test B disease control rating (100 = 100% disease control, 0 = no disease control relative to the controls)” value is given as 100%. For the same molecule, the “Test C disease control rating (100 = 100% disease control, 0 = no disease control relative to the controls)” value with Septoria nodorum came out at 0%.
Taken in the same sequence, the figures for `Cc1c(N=CN(C)C)cc(Cl)c(OCCCC(C)C)c1Cl` [compound 115] were 85%, 85% and 100%.
Taken in the same sequence, the figures for `Cc1cc(OCCCCCCl)c(C)cc1N=CN(C)C` [Compound 17] were 92%, 100% and 100%.
Taken in the same sequence, the figures for `C=CCN(C)C(=S)Nc1cc(Cl)c(OCCC[Si](C)(C)C)c(Cl)c1Cl` [compound 83] were 0%, 9% and 0%.
For `COC(=O)C(=Nc1cc(Cl)c(OCCC[Si](C)(C)C)cc1C)N(C)C` [compound 130], the “Test A disease control rating (100 = 100% disease control, 0 = no disease control relative to the controls)” value in test [1] is on record as 100%. In addition, in the test on Puccinia recondita, the “Test B disease control rating (100 = 100% disease control, 0 = no disease control relative to the controls)” value turned out to be 97%. In the test with Septoria nodorum, the “Test C disease control rating (100 = 100% disease control, 0 = no disease control relative to the controls)” value came to 0%.
For the molecule `Cc1cc(OCCCC(C)(C)C)c(Cl)cc1N=CN(C)C` [compound 176], the “Test A disease control rating (100 = 100% disease control, 0 = no disease control relative to the controls)” value in test [1] came out at 43%. In the test with Puccinia recondita, the “Test B disease control rating (100 = 100% disease control, 0 = no disease control relative to the controls)” value is on record as 99%. In the test on Septoria nodorum, the “Test C disease control rating (100 = 100% disease control, 0 = no disease control relative to the controls)” value is 100%.
For the molecule `CCCCC(C)Oc1cc(C)c(N=CN(C)C)cc1C` (stereo not drawn) [Compound 18], the “Test A disease control rating (100 = 100% disease control, 0 = no disease control relative to the controls)” value in test [1] amounted to 98%. Besides, the “Test B disease control rating (100 = 100% disease control, 0 = no disease control relative to the controls)” value with Puccinia recondita turned out to be 100%. For the same molecule, the “Test C disease control rating (100 = 100% disease control, 0 = no disease control relative to the controls)” value with Septoria nodorum turned out to be 98%.
For `CC(=Nc1cc(C)c(OCCC(C)CC(C)(C)C)cc1C)N(C)C` (stereo not drawn) [compound 98], in test [1], the “Test A disease control rating (100 = 100% disease control, 0 = no disease control relative to the controls)” value is on record as 0%. Further, in the test on Puccinia recondita, the “Test B disease control rating (100 = 100% disease control, 0 = no disease control relative to the controls)” value is given as 60%. For the same molecule, the “Test C disease control rating (100 = 100% disease control, 0 = no disease control relative to the controls)” value with Septoria nodorum was found to be 94%.
`Cc1cc(OCCOC(C)(C)C)c(C)cc1NC(=S)N(C)C` [compound 165]: the “Test A disease control rating (100 = 100% disease control, 0 = no disease control relative to the controls)” value in test [1] amounted to 0%. Further, the “Test B disease control rating (100 = 100% disease control, 0 = no disease control relative to the controls)” value in the test on Puccinia recondita is on record as 28%. For the same molecule, the “Test C disease control rating (100 = 100% disease control, 0 = no disease control relative to the controls)” value in the test with Septoria nodorum is listed as 0%.
As to `Cc1cc(OCCC[Si](C)(C)C)c(Cl)cc1NC(=S)N(C)C` [compound 168], in test [1], the “Test A disease control rating (100 = 100% disease control, 0 = no disease control relative to the controls)” value came out at 99%. The “Test B disease control rating (100 = 100% disease control, 0 = no disease control relative to the controls)” value in the test on Puccinia recondita amounted to 100%. For the same molecule, the “Test C disease control rating (100 = 100% disease control, 0 = no disease control relative to the controls)” value in the test on Septoria nodorum is given as 100%.
As to `CC(=Nc1cc(Cl)c(OCCCC(C)C)cc1C)N(C)C` [compound 111], the “Test A disease control rating (100 = 100% disease control, 0 = no disease control relative to the controls)” value in test [1] worked out at 99%. Further, the “Test B disease control rating (100 = 100% disease control, 0 = no disease control relative to the controls)” value in the test on Puccinia recondita is 100%. Besides, the “Test C disease control rating (100 = 100% disease control, 0 = no disease control relative to the controls)” value in the test on Septoria nodorum is on record as 100%.
Regarding `Cc1cc(OCCC[Si](C)(C)C)c(C)cc1NC(=S)N(C)C` [compound 167], the “Test A disease control rating (100 = 100% disease control, 0 = no disease control relative to the controls)” value in test [1] stood at 99%. For the same molecule, the “Test B disease control rating (100 = 100% disease control, 0 = no disease control relative to the controls)” value in the test with Puccinia recondita was found to be 99%. For the same molecule, the “Test C disease control rating (100 = 100% disease control, 0 = no disease control relative to the controls)” value with Septoria nodorum was 100%.
`COC(CCCCOc1cc(C)c(N=CN(C)C)cc1C)(OC)OC` [Compound 7]: the “Test A disease control rating (100 = 100% disease control, 0 = no disease control relative to the controls)” value in test [1] is recorded as 0%. Moreover, in the test with Puccinia recondita, the “Test B disease control rating (100 = 100% disease control, 0 = no disease control relative to the controls)” value came to 0%. Also, the “Test C disease control rating (100 = 100% disease control, 0 = no disease control relative to the controls)” value with Septoria nodorum was 0%.
Take `Cc1c(NC(=S)N(C)C)cc(Cl)c(OCCCC(C)(C)C)c1Cl` [compound 121]: the “Test A disease control rating (100 = 100% disease control, 0 = no disease control relative to the controls)” value in test [1] came out at 49%. In addition, the “Test B disease control rating (100 = 100% disease control, 0 = no disease control relative to the controls)” value with Puccinia recondita worked out at 85%. The “Test C disease control rating (100 = 100% disease control, 0 = no disease control relative to the controls)” value with Septoria nodorum is 67%.
Regarding `CC(C)CCCOc1cc(Cl)c(N=CN(C)C)cc1Cl` [compound 126], the “Test A disease control rating (100 = 100% disease control, 0 = no disease control relative to the controls)” value in test [1] is recorded as 95%. Moreover, the “Test B disease control rating (100 = 100% disease control, 0 = no disease control relative to the controls)” value in the test on Puccinia recondita was determined as 40%. The “Test C disease control rating (100 = 100% disease control, 0 = no disease control relative to the controls)” value with Septoria nodorum is listed as 100%.
The matching figures for `Cc1cc(NCCC(C)CC(C)(C)C)c(C)cc1N=CN(C)C` (stereo not drawn) [compound 147]: 0%, 0% and 53%.
Taken in the same sequence, the figures for `CCCN(C)C=Nc1cc(Cl)c(OCCC[Si](C)(C)C)cc1C` [compound 58] were 100%, 100% and 100%.
Taken in the same sequence, the figures for `CCN(CC)C(=S)Nc1cc(Cl)c(OCCC[Si](C)(C)C)c(Cl)c1C` [compound 179] were 20%, 23% and 0%.
On to `Cc1cc(NC(=O)NCC(C)C)c(C)cc1N=CN(C)C` [compound 189], for which, in test [1], the “Test A disease control rating (100 = 100% disease control, 0 = no disease control relative to the controls)” value amounted to 0%. In addition, the “Test B disease control rating (100 = 100% disease control, 0 = no disease control relative to the controls)” value in the test with Puccinia recondita worked out at 9%. In the test with Septoria nodorum, the “Test C disease control rating (100 = 100% disease control, 0 = no disease control relative to the controls)” value stood at 0%.
